Source: patent US9676720B2, “Substituted biaryl compound” (UBE INDUSTRIES, LTD., priority 2013, dated 2017)

The molecules below were run on Pulmonary fibroblasts derived from a human fetus (IMR90) (assay: Test for inhibition of pulmonary fibroblast proliferation (BrdU incorporation)). Settings: Homo sapiens, IMR-90, read-out: IC50 value (nM) of inhibition effect of pulmonary fibroblast proliferation.
Type: cell-based
Procedure: Measurement of inhibition effect of pulmonary fibroblast proliferation was performed by modifying the method of Huang et al. (American Journal of Respiratory Cell and Molecular Biology, 39, 482 (2008)). Pulmonary fibroblasts derived from a human fetus (IMR90, purchased from American Type Culture Collection) were cultured in DMEM medium containing 10% FBS and seeded at 1×10^4 cells/well of a 96-well plate. After culturing for approximately 8 hours in a carbon dioxide incubator, the medium was replaced with FBS-free DMEM medium and the culturing was performed for one night. On the following day, the medium was replaced with a new FBS-free DMEM medium, and then a test compound dissolved in dimethyl sulfoxide (final concentration: 0.1%) and FGF (final concentration: 10 ng/mL, manufactured by Wako Pure Chemical Industries, Ltd.) were added thereto and allowed to stand undisturbed in a carbon dioxide incubator. After 22 hours, a BrdU labeling solution (manufactured by Roche) was added and culturing was performed for another 2 hours. After the completion of the culturing, amount of BrdU incorporation was measured using Cell Proliferation ELISA BrdU (colorimetric) (manufactured by Roche). The concentration of the test compound required to inhibit BrdU incorporation to 50% (IC50 value) was calculated by non-linear regression of the test compound concentration and the amount of BrdU incorporation using EXSAS (Ver. 8.0.0, manufactured by Arm Systex).
`O=C(O)CNc1cccc(CN(Cc2ccc(-c3ccccc3)cc2)S(=O)(=O)c2ccccn2)n1` [Comparative example 1] was tested, and the IC50 was > 1 nM. `O=C(O)CNc1cccc(CN(Cc2ccc(-c3ccccc3)cc2)S(=O)(=O)c2cccnc2)n1` [Comparative example 2, {6-[(Biphenyl-4-ylmethyl)(pyridin-3-ylsulfonyl)aminomethyl]pyridin-2-ylamino}acetic acid] showed an IC50 of 0.97 nM. `O=C(O)CNc1cccc(CN(Cc2ccc(-c3ccc(F)cc3)cc2)S(=O)(=O)c2cccnc2)n1` [Comparative example 3, {6-[(4′-Fluorobiphenyl-4-ylmethyl)(pyridin-3-ylsulfonyl)aminomethyl]-pyridin-2-ylamino}acetic acid] was tested, and the IC50 was > 1 nM. For `O=C(O)CNc1cccc(CN(Cc2ccc(-c3ccc(Cl)cc3)cc2)S(=O)(=O)c2cccnc2)n1` [Comparative example 4, {6-[(4′-Chlorobiphenyl-4-ylmethyl)(pyridin-3-ylsulfonyl)aminomethyl]-pyridin-2-ylamino}acetic acid], the IC50 was > 1 nM. In the case of `CC#Cc1ccccc1-c1ccc(CN(Cc2cccc(NCC(=O)O)n2)S(=O)(=O)c2ccccn2)cc1` [Comparative example 16], the IC50 is reported as 0.5 nM. In the case of `CC#Cc1ccc(-c2ccc(CN(Cc3cccc(NCC(=O)O)n3)S(=O)(=O)c3ccccn3)cc2)cc1` [Comparative example 17], the IC50 is reported as > 1 nM. `CC#Cc1cccc(-c2ccc(CN(Cc3cccc(NCC(=O)O)n3)S(=O)(=O)c3ccccn3)cc2)c1` [Example 4, (6-{[3′-(1-Propynyl)biphenyl-4-ylmethyl](pyridin-2-ylsulfonyl)aminomethyl}-pyridin-2-ylamino)acetic acid] was tested, and the IC50 was 0.016 nM. Work on `CC#Cc1cccc(-c2ccc(CN(Cc3cccc(NCC(=O)O)n3)S(=O)(=O)c3cccnc3)cc2)c1` [Example 6, (6-{[3′-(1-Propynyl)biphenyl-4-ylmethyl](pyridin-3-ylsulfonyl)aminomethyl}-pyridin-2-ylamino)acetic acid] yielded an IC50 of 0.045 nM. With `CCOc1cccc(-c2ccc(CN(Cc3cccc(NCC(=O)O)n3)S(=O)(=O)c3cccnc3)cc2)c1` [Example 9, {6-[(3′-Ethoxybiphenyl-4-ylmethyl)(pyridin-3-ylsulfonyl)aminomethyl]-pyridin-2-ylamino}acetic acid] the IC50 was 0.051 nM. With `CCOc1cccc(-c2ccc(CN(Cc3cccc(NCC(=O)O)n3)S(=O)(=O)c3ccccc3)cc2)c1` [Example 10, {6-[(Benzenesulfonyl)(3′-ethoxybiphenyl-4-ylmethyl)aminomethyl]pyridin-2-ylamino}acetic acid] the IC50 was 0.035 nM. For `CC#Cc1cccc(-c2ccc(CN(Cc3cccc(NCC(=O)O)n3)S(=O)(=O)c3cccs3)cc2)c1` [Example 14, (6-{[3′-(1-Propynyl)biphenyl-4-ylmethyl](thiophen-2-ylsulfonyl)-aminomethyl}pyridin-2-ylamino)acetic acid], the IC50 was 0.011 nM. Work on `CC#Cc1cccc(-c2ccc(CN(Cc3cccc(NCC(=O)O)n3)S(=O)(=O)c3ccccc3)cc2)c1` [Example 16, (6-{(Benzenesulfonyl)[3′-(1-propynyl)biphenyl-4-ylmethyl]aminomethyl}-pyridin-2-ylamino)acetic acid] yielded an IC50 of 0.0088 nM. `CC#Cc1cccc(-c2ccc(CN(Cc3cccc(NCC(=O)O)n3)S(=O)(=O)c3cccc(F)c3)cc2)c1` [Example 19, (6-{(3-Fluorobenzenesulfonyl)[3′-(1-propynyl)biphenyl-4-ylmethyl]-aminomethyl}pyridin-2-ylamino)acetic acid] was tested, and the IC50 was 0.026 nM.

Same assay, conditions: Homo sapiens, IMR-90; IMR90; FGF 10 ng/mL; BrdU incorporation; read-out: IC50 value (nM) of inhibition effect of pulmonary fibroblast proliferation
For `Cc1cnc(-c2ccc(CN(Cc3cccc(NCC(=O)O)n3)S(=O)(=O)c3ccccn3)cc2)s1` [Comparative example 5], the IC50 was > 1 nM. Work on `Cc1cccc(-c2ccc(CN(Cc3cccc(NCC(=O)O)n3)S(=O)(=O)c3ccccn3)cc2)c1` [Comparative example 6] yielded an IC50 of 0.58 nM. `CCc1cccc(-c2ccc(CN(Cc3cccc(NCC(=O)O)n3)S(=O)(=O)c3ccccn3)cc2)c1` [Comparative example 7] showed an IC50 of 0.88 nM. Molecule `CCCc1cccc(-c2ccc(CN(Cc3cccc(NCC(=O)O)n3)S(=O)(=O)c3ccccn3)cc2)c1` [Comparative example 8] has an IC50 of 0.34 nM. In the case of `CCC=Cc1cccc(-c2ccc(CN(Cc3cccc(NCC(=O)O)n3)S(=O)(=O)c3ccccn3)cc2)c1` [Comparative example 9, (6-{[3′-(1-Butenyl)biphenyl-4-ylmethyl](pyridin-2-ylsulfonyl)aminomethyl}-pyridin-2-ylamino)acetic acid], the IC50 is reported as 0.75 nM. `C=CCc1cccc(-c2ccc(CN(Cc3cccc(NCC(=O)O)n3)S(=O)(=O)c3ccccn3)cc2)c1` [Comparative example 10] showed an IC50 of 0.56 nM. Work on `COc1cccc(-c2ccc(CN(Cc3cccc(NCC(=O)O)n3)S(=O)(=O)c3ccccn3)cc2)c1` [Comparative example 11] yielded an IC50 of 0.2 nM. For `CCOc1ccccc1-c1ccc(CN(Cc2cccc(NCC(=O)O)n2)S(=O)(=O)c2ccccn2)cc1` [Comparative example 13], the IC50 was > 1 nM. In the case of `CCOc1ccc(-c2ccc(CN(Cc3cccc(NCC(=O)O)n3)S(=O)(=O)c3ccccn3)cc2)cc1` [Comparative example 14], the IC50 is reported as > 1 nM. With `CCOc1cc(-c2ccc(CN(Cc3cccc(NCC(=O)O)n3)S(=O)(=O)c3ccccn3)cc2)ccn1` [Comparative example 15, (6-{[4-(2-Ethoxypyridin-4-yl)benzyl](pyridin-2-ylsulfonyl)aminomethyl}-pyridin-2-ylamino)acetic acid] the IC50 was > 1 nM. `CC=Cc1cccc(-c2ccc(CN(Cc3cccc(NCC(=O)O)n3)S(=O)(=O)c3ccccn3)cc2)c1` [Example 2] gave an IC50 of 0.035 nM. Work on `CCOc1cccc(-c2ccc(CN(Cc3cccc(NCC(=O)O)n3)S(=O)(=O)c3ccccn3)cc2)c1` [Example 7, {6-[(3′-Ethoxybiphenyl-4-ylmethyl)(pyridin-2-ylsulfonyl)aminomethyl]-pyridin-2-ylamino}acetic acid] yielded an IC50 of 0.028 nM. Molecule `CCOc1cccc(-c2ccc(CN(Cc3cccc(NCC(=O)O)n3)S(=O)(=O)c3cccs3)cc2)c1` [Example 11, {6-[(3′-Ethoxybiphenyl-4-ylmethyl)(thiophen-2-ylsulfonyl)aminomethyl]-pyridin-2-ylamino}acetic acid] has an IC50 of 0.049 nM. Molecule `CCOc1cccc(-c2ccc(CN(Cc3cccc(NCC(=O)O)n3)S(=O)(=O)c3ccccn3)cc2)n1` [Example 12, (6-{[4-(6-Ethoxypyridin-2-yl)benzyl](pyridin-2-ylsulfonyl)aminomethyl}-pyridin-2-ylamino)acetic acid] has an IC50 of 0.037 nM.

Each molecule was assayed against human EP2 receptor (Homo sapiens (Human), UniProt P43116) (assay: Measurement of EP2 receptor binding action). Settings: membrane fraction of HEK293 cells expressing human EP2 receptor; [3H]prostaglandin E2 10 nM.
Chain of human EP2 receptor (P43116 whole entry): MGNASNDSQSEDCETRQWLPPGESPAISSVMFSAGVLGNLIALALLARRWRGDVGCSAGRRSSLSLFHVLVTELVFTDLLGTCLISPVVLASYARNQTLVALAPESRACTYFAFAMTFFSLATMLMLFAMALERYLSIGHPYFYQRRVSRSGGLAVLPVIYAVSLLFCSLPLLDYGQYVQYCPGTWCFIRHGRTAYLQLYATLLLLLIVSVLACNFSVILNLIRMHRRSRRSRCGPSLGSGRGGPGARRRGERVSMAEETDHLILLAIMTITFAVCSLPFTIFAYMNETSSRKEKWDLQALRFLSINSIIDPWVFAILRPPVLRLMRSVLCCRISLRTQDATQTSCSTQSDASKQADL
Procedure: The membrane fraction was recovered on glass fiber filter paper (GF/B, manufactured by Whatman) using a cell harvester (M30R, manufactured by Brandel), and after washing with a buffer solution (10 mM MES-KOH (pH 6.0), 10 mM MgCl2), radioactivity was measured with a liquid scintillation analyzer (2000CA, manufactured by Packard). […] Ki=IC50/(1+([^3H]prostaglandin E2 concentration/Kd))
Note that the dissociation constant (Kd value) was calculated by Scatchard analysis.
`CCC=Cc1cccc(-c2ccc(CN(Cc3cccc(NCC(=O)O)n3)S(=O)(=O)c3ccccn3)cc2)c1` [Comparative example 9, (6-{[3′-(1-Butenyl)biphenyl-4-ylmethyl](pyridin-2-ylsulfonyl)aminomethyl}-pyridin-2-ylamino)acetic acid] was tested, and the Ki was 1.5 nM. For `CCOc1cc(-c2ccc(CN(Cc3cccc(NCC(=O)O)n3)S(=O)(=O)c3ccccn3)cc2)ccn1` [Comparative example 15, (6-{[4-(2-Ethoxypyridin-4-yl)benzyl](pyridin-2-ylsulfonyl)aminomethyl}-pyridin-2-ylamino)acetic acid], the Ki was 3.2 nM.

Each molecule was assayed on mouse pulmonary fibrosis models (bleomycin) (assay: Test for inhibition of pulmonary fibrosis in mouse (bleomycin model, lung hydroxyproline)). Settings: dose of 0.3 mg/kg, intratracheal administration twice per day for 28 days.
Type: in vivo, ICR mice
Procedure: Test for inhibition effect of pulmonary fibrosis using mouse was performed by partially modifying the method of Oku et al. (European Journal of Pharmacology, 590, 400 (2008)). […] These models were used as a bleomycin control group and a test compound administration group. Similarly, a normal group was subjected to administration of saline for 5 days. For the test, each group used 7 or more mice. The test compound solution for the administration was prepared by dissolving the test substance to the equimolar amount of 0.1 mol/L aqueous sodium hydroxide solution, and then neutralizing by adding a phosphate buffer solution (PBS) which was a medium. The test compound was administered via intratracheal administration twice per day from the start date of the test, for 28 days. For the normal group and bleomycin control group, the medium was administered similarly via intratracheal administration. For the intratracheal administration, the MicroSprayerTM (IA-1C-M, manufactured by PennCentury) was used. On the day following the completion of 28-day administration, the mice were left bleeding to die while subjecting the mice for inhalation anesthesia, to collect the lungs. […] The amount of hydroxyproline (HYP) in the lung hydrolysis solution, which is an indicator of collagen accumulation, was measured by the method of Woessner et al. (Archives of Biochemistry and Biophysics, 93, 440 (1961)). […] After cooling, 200 μL of the colored solution was placed on a microplate, and the absorbance (measurement wavelength: 570 nm, reference wavelength: 620 nm) was measured using a plate reader (SPECTRA FLOUR, manufactured by Tecan). A HYP solution having a specified concentration was reacted in the same manner to create a calibration curve, and the HYP concentration of each sample was calculated. From the calculated HYP concentration, the amount of HYP in the lung per 100 g of body weight was calculated. The inhibiting rate of HYP formation in the lung upon administration of the test compound was calculated using the formula described below. […]
`CC#Cc1cccc(-c2ccc(CN(Cc3cccc(NCC(=O)O)n3)S(=O)(=O)c3ccccn3)cc2)c1` [Example 4, (6-{[3′-(1-Propynyl)biphenyl-4-ylmethyl](pyridin-2-ylsulfonyl)aminomethyl}-pyridin-2-ylamino)acetic acid] was tested, and the “Inhibiting rate of HYP formation in the lung” value (“Inhibiting rate” below) was ≥ 70%. For `CCOc1cccc(-c2ccc(CN(Cc3cccc(NCC(=O)O)n3)S(=O)(=O)c3ccccc3)cc2)c1` [Example 10, {6-[(Benzenesulfonyl)(3′-ethoxybiphenyl-4-ylmethyl)aminomethyl]pyridin-2-ylamino}acetic acid], the “Inhibiting rate” value was ≥ 70%. In the case of `CC#Cc1cccc(-c2ccc(CN(Cc3cccc(NCC(=O)O)n3)S(=O)(=O)c3ccccc3)cc2)c1` [Example 16, (6-{(Benzenesulfonyl)[3′-(1-propynyl)biphenyl-4-ylmethyl]aminomethyl}-pyridin-2-ylamino)acetic acid], the “Inhibiting rate” value is reported as ≥ 70%.
